Experiments:
βTC-1 cells [1] = assay: Proinsulin biosynthesis ([3H]leucine labelling); type: cell-based, mouse; settings: 6 hours labeling
Procedure: βTC-1 cells (Efrat et al., Proc. Natl. Acad. Sci. (USA) 85:9037–9041 (1988)) were grown in a humidified atmosphere at 37° C. in RPMI 1640 medium supplemented with 10% (vol/vol) fetal bovine serum, 5% (vol/vol) horse serum, 100 U/ml penicillin and 100 μg/ml streptomycin. Media were changed after three days and cells were split 1:3 after six days.
βTC-1 cells were plated into 35 mm plates and grown for two days to reach 80–90% confluency. During a 6 hour labeling period cells were incubated in 1 ml RPMI 1640 supplemented with 0.1% human serum albumin, 0.1% bacitracin and 50 μCi[^3H]leucine. Forskolin, IBMX, 8-Bromo-cAMP and GLP-1(7-37) were added from stock solutions as described (see “cell transfection”). Cells were harvested in PBS and lysed by three freeze-thaw cycles. Immunoreactive proinsulin was precipitated with an antiserum raised in rabbits against pork insulin that was coupled to a 10% suspension of bacterial lysates (Saureus) containing protein A. Radioactivity contained in the resulting pellets was counted using a lliquid scintillation counter. Incorporation of [^3H]leucine into total protein was measured in trichloroacetic acid precipitates of the cells. None of the agents tested had any effects on [^3H]leucine incorporation into TCA precipitable proteins. Data are expressed as fold-induction of proinsulin biosynthesis above those in the control experiments (no treatment).

[2] = tested on: rat insulin I gene promoter in βTC-1 cells; assay: CAT activity in cells transiently transfected with −410 Ins-CAT plasmid; type: cell-based, mouse; settings: 24 hours
Procedure: Cells of two 80–90% confluent 150 mm culture plates were trypsinized and transfected in solution in one tube with 15 μg of indicator plasmid using the DEAE-dextran method. The plasmid contained 410 bp of the rat insulin I gene promoter fused to the transcriptional reporter gene encoding the bacterial enzyme chloramphenicol-acetyltransferase (CAT). […] Subsequently cells were plated into 18 wells of six well plates. […] Thereby, differences in transfection deficiencies reflected in CAT activities were normalized against protein concentrations as well as the respective control experiments. After transfection cells were incubated in RPMI 1640 supplemented with 0.1% human serum albumin and 0.1% bacitracin. […] After extraction with ethylacetate (1 ml) acetylated and non-acetylated ^14C-chloramphenicol were separated by thin-layer chromatography (chloroform:methanol 9:1), identified by autoradiography and the respective spots were scraped from the plates and radioactivity was counted in a scintillation counter.

βTC-1 cells [3] = assay: Cellular insulin content by radioimmunoassay; type: cell-based, mouse; settings: 24 hours
Procedure: Two days before the experiment commenced, cells were plated into 35 mm plates. Media were changed to RPMI 1640 supplemented with 0.1% human serum albumin and 0.1% bacitracin. […] After incubation for 24 hours under these conditions, cells were washed three times with PBS and harvested in 1.5 ml buffer containing 150 mM NaCl, 1 mM EDTA and 40 mM Tris/Cl pH 7.4 and resuspended in 200 μl PBS. Fifty μl of this cell suspension were resuspended in 1 ml 1 M acetic acid and extracted for 16 hours at 4° C. Aliquots (2 and 20 μl) were lyophilized and reconstituted in insulin-RIA buffer. The cell number of each plate was controlled by determination of total protein in the initial cell lysate. […] Insulin was measured with a radioimmunoassay system using an antiserum raised in rabbits against pork insulin and pork insulin as the standard. […] Data are presented as fold-increase of insulin content per well above the control experiments (no treatment).

[4] = molecular target: receptor involved in the recognition of glucagon; assay: cell-based or functional assay

Question: For C=C[C@@]1(C)CC(=O)[C@]2(O)[C@@]3(C)[C@@H](O)CCC(C)(C)[C@@H]3[C@H](O)[C@H](OC(C)=O)[C@@]2(C)O1 [Forskolin, forskolin], which “Increase of proinsulin biosynthesis” value (βTC-1 cells [1]; 10 μM) is on record?
Answer: 1.53±0.06 fold

Question: What about the “Increase of CAT activity” value ([2]; 10 μM) of the same compound?
Answer: 3.3±0.57 fold

Question: And the “Increase of total cellular insulin content” value (βTC-1 cells [3]; 10 μM)?
Answer: 1.49±0.18 fold

Question: With CC[C@H](C)[C@H](NC(=O)[C@H](Cc1ccccc1)NC(=O)[C@H](CCC(=O)O)NC(=O)[C@H](CCCCN)NC(=O)[C@H](C)NC(=O)[C@H](C)NC(=O)[C@H](CCC(N)=O)NC(=O)CNC(=O)[C@H](CCC(=O)O)NC(=O)[C@H](CC(C)C)NC(=O)[C@H](Cc1ccc(O)cc1)NC(=O)[C@H](CO)NC(=O)[C@H](CO)NC(=O)[C@@H](NC(=O)[C@H](CC(=O)O)NC(=O)[C@H](CO)NC(=O)[C@@H](NC(=O)[C@H](Cc1ccccc1)NC(=O)[C@@H](NC(=O)CNC(=O)[C@H](CCC(=O)O)NC(=O)[C@H](C)NC(=O)[C@H](Cc1cnc[nH]1)NC(=O)[C@H](CCCNC(=N)N)NC(=O)[C@H](CCC(=O)O)NC(=O)[C@H](Cc1ccccc1)NC(=O)[C@H](CCC(=O)O)NC(=O)[C@H](CC(=O)O)NC(=O)[C@@H](N)Cc1cnc[nH]1)[C@@H](C)O)[C@@H](C)O)C(C)C)C(=O)N[C@@H](C)C(=O)N[C@@H](Cc1c[nH]c2ccccc12)C(=O)N[C@@H](CC(C)C)C(=O)N[C@H](C(=O)N[C@@H](CCCCN)C(=O)NCC(=O)N[C@@H](CCCNC(=N)N)C(=O)NCC(=O)O)C(C)C [GLP-1(1-37)] as the compound, how does the half-life (Biological half-life) read?
Answer: 15 to 20 min

Question: With CC(C)Cn1c(=O)n(C)c(=O)c2[nH]cnc21 [IBMX] as the compound, how does the “Increase of proinsulin biosynthesis” value (βTC-1 cells [1]; 0.5 mM) read?
Answer: 1.53±0.06 fold

Question: And the “Increase of CAT activity” value ([2]; 0.5 mM)?
Answer: 2.6±0.16 fold

Question: What about the “Increase of total cellular insulin content” value (βTC-1 cells [3]; 0.5 mM) of the same compound?
Answer: 1.30±0.12 fold

Question: Which mean perfusate insulin concentration, perfused rat pancreas, glucagon alone at 10^-9 M [4] does the source give for “glucagon (from UniProt P01275 53-81) (peptide)” here?
Answer: 4.98 ng/mL
